{"source": "patent US20150050410A1", "about": "“COMPOUNDS, COMPOSITIONS, AND METHODS FOR MODULATING SWEET TASTE” (Chromocell Corporation, priority 2013, published 2015)", "tested_on": "perception of the sweet taste in humans", "assay": "Trained descriptive analysis (DA) panel, sweet attribute", "format": "in vivo", "settings": "for compound effects beyond the additive effect of inherent sweetness: 4% fructose and 8% sucrose; for DA Panel Average Sweetness Intensity Score (on 15 cm scale): inherent sweetness, 35 ppm compound plus solubilizing agent, 1 cm = 1% sucrose", "description": "The effect of the test compounds on the perception of the sweet taste in an aqueous environment, in the absence or presence of carbohydrate sweeteners, was evaluated using a descriptive analysis methodology with a group of trained panelists, as follows.\nCandidate panelists were recruited, with prescreening and personal interviews, and were assessed for their ability to detect, recognize and differentiate basic taste attributes or mixtures thereof as part of a standardized acuity test. These candidate panelists were also assessed for their innate ability to identify flavors, and to rank on intensity scales. Other senses such as smell and vision were also included as part of the assessment. Candidates also were screened for their ability to use the language to describe and articulate ideas.\nSelected candidates proceeded to training as a group in three phases: (1) Lexicon development, (2) Concept alignment, and (3) Scaling descriptors. During lexicon development, panelists evaluated products appropriate for use in the study to generate and align on terms describing the flavor, taste, aromatic, trigeminal, and temporal attributes. During concept alignment, the panel evaluated the products mentioned above to clarify and confirm the attributes that were generated during lexicon development using reference standards that appropriately define each attribute; these are either physical references (e.g. sucrose solutions) or verbal descriptions (e.g. overall flavor). Product terms and concepts were validated during this portion of the study.\nIn the last phase, scaling descriptors, the panel participated in a series of exercises focused on ordering and ranking samples according to relative attribute intensity, measuring attribute intensity using a defined length of line scale. Whenever possible, different levels or concentration of references were used as anchors to facilitate use of the scale. Panelists were provided with blinded references at this stage to evaluate their understanding and perception of the scale.\nThe panel used in this example was trained to reference sweet attributes in an absolute manner, such that a particular concentration of sweetener is always measured by the panelists at the same point using a 15 cm line scale where each cm represents a 1% increase in sucrose to cover the range of 0% to 15% sucrose. For the rest of the attributes, the panel was trained using a hybrid approach between descriptive analysis methods (e.g. quantitative descriptive analysis, the sensory spectrum, etc.) well-known to those skilled in the art.\nThe trained panel was then used for a descriptive analysis assessment for Compounds 1, 2 and 3 in aqueous solutions at pH 3 and pH 7. Each of the three compounds was tested at 35 ppm in sucrose and fructose sweeteners. In addition, Compounds 1, 2 and 3 were also examined in water at pH 3 and pH 7 to assess for any inherent sweetness.\nThe aqueous sweetener solutions were prepared by adding, fructose or sucrose (by weight), to water to achieve the desired concentration. Aqueous sucrose solutions at pH 3 were buffered using a final concentration of 0.096% Citric Acid plus 0.036% Sodium Citrate while aqueous fructose solutions at pH 3 were buffered using a final concentration of 0.06% Citric Acid and 0.0225% Sodium Citrate.\nCompounds were first prepared as a […] concentrated stock solution in 100% ethanol. These concentrated stocks were then added to the aqueous sweetener solutions to result in a final ethanol concentration of 0.2%. In addition to compounds, a solubilizing agent at a final concentration of 0.02% was added to the aqueous sweetener solutions. Control samples were also balanced with 0.2% ethanol and in certain cases 0.02% solubilizing agent.\nBoth control (aqueous sweetener solutions without compound) and variant (aqueous sweetener solutions with compound) samples were blinded and randomized (by sweetener and pH blocks). […]"}
{"smiles": "COc1ccc(C2CC(=O)c3c(O)cccc3O2)cc1O", "note": "(racemic) [Compound 1, 5-hydroxy-2-(3-hydroxy-4-methoxyphenyl)chroman-4-one]", "values": [{"measurement": "compound effects beyond the additive effect of inherent sweetness", "setting": "pH 3, 35 ppm, Table 7 vs Table 5", "value": "super-additive effects"}, {"measurement": "compound effects beyond the additive effect of inherent sweetness", "setting": "pH 7, 35 ppm, Table 6 vs Table 4", "value": "super-additive effects"}, {"measurement": "perceived sweetness compared to control sweetener solutions (FIG. 2)", "setting": "aqueous fructose and sucrose solutions at pH 3, 35 ppm, ** p<0.01", "value": "significant increase in perceived sweetness"}, {"measurement": "perceived sweetness compared to control sweetener solutions (FIG. 1)", "setting": "aqueous fructose and sucrose solutions at pH 7, 35 ppm, ** p<0.01", "value": "significant increase in perceived sweetness"}, {"measurement": "DA Panel Average Sweetness Intensity Score (on 15 cm scale)", "setting": "citric acid-citrate solution pH 3", "value": "do not show further significant increase in perceived inherent sweetness"}, {"measurement": "DA Panel Average Sweetness Intensity Score (on 15 cm scale)", "setting": "water pH 7", "value": "further increase in perceived sweetness"}]}
